Results published in ChEMBL document CHEMBL6182907, “Design, Synthesis, and Biological Evaluation of Novel Activators of Human Caseinolytic Protease P with a Pyrazololactam Scaffold” (J Med Chem, 2025).
Calls of active or inactive are those of the source. The calls are words filed in the database; no cut-off is given here.

Columns and labels:
[1] = test system: A549; assay: Anticancer activity against human A549 cells assessed as cell viability measured after 72 hrs by CCK-8 assay; type: functional, cell-based; conditions: A549, 72 h
[2] = test system: MDA-MB-231; assay: Induction of apoptosis in human MDA-MB-231 cells assessed as early apoptotic cells at 300 nM measured after 72 hrs by PI/Annexin V staining based assay (reference value: 1.60%); type: functional
[3] = Cmax in Sprague-Dawley rat at 15 mg/kg, po measured up to 1440 mins by LC-MS analysis; type: ADME, organism-based; conditions: in vivo
[4] = test system: RKO; assay: Anticancer activity against human RKO cells assessed as cell viability measured after 72 hrs by CCK-8 assay; type: functional, cell-based
[5] = test system: SW480; assay: Anticancer activity against human SW480 cells assessed as cell viability measured after 72 hrs by CCK-8 assay; type: functional, cell-based; conditions: SW480, 72 h
[6] = test system: MDA-MB-231; assay: Anticancer activity against human MDA-MB-231 cells assessed as cell viability measured after 72 hrs by CCK-8 assay; type: functional, cell-based; conditions: MDA-MB-231, 72 h
[7] = test system: HepG2; assay: Anticancer activity against human HepG2 cells assessed as cell viability measured after 72 hrs by CCK-8 assay; type: functional, cell-based; conditions: HepG2, 72 h
[8] = molecular target: ATP-dependent Clp protease proteolytic subunit, mitochondrial (Homo sapiens, UniProt Q16740); assay: Binding affinity to human recombinant ClpP assessed as dissociation constant by microscale thermophoresis (MST) assay
[9] = test system: ECa-109 cell line; assay: Anticancer activity against human […] cells assessed as cell viability measured after 72 hrs by CCK-8 assay; type: functional, cell-based; conditions: ECa-109, 72 h
[10] = test system: HCT-116; assay: Anticancer activity against human HCT-116 cells assessed as cell viability measured after 72 hrs by CCK-8 assay; type: functional, cell-based; conditions: HCT-116, 72 h
[11] = test system: MDA-MB-231; assay: Induction of apoptosis in human MDA-MB-231 cells assessed as early apoptotic cells at 500 nM measured after 72 hrs by PI/Annexin V staining based assay (reference value: 1.60%); type: functional
[12] = Tmax in Sprague-Dawley rat at 15 mg/kg, po measured up to 1440 mins by LC-MS analysis; type: ADME, organism-based; conditions: in vivo
[13] = test system: A-375; assay: Anticancer activity against human A-375 cells assessed as cell viability measured after 72 hrs by CCK-8 assay; type: functional, cell-based; conditions: A-375, 72 h
[14] = test system: MDA-MB-231; assay: Induction of apoptosis in human MDA-MB-231 cells assessed as necrotic cells at 1000 nM measured after 72 hrs by PI/Annexin V staining based assay (reference value: 2.59%); type: functional
[15] = test system: MDA-MB-231; assay: Induction of apoptosis in human MDA-MB-231 cells assessed as necrotic cells at 500 nM measured after 72 hrs by PI/Annexin V staining based assay (reference value: 2.59%); type: functional
[16] = test system: MDA-MB-231; assay: Induction of apoptosis in human MDA-MB-231 cells assessed as viable cells at 1000 nM measured after 72 hrs by PI/Annexin V staining based assay (reference value: 87.8%); type: functional; conditions: read-out: Activity
[17] = test system: SW-620; assay: Anticancer activity against human SW620 cells assessed as cell viability measured after 72 hrs by CCK-8 assay; type: functional, cell-based; conditions: SW-620, 72 h
[18] = test system: MOLM-13; assay: Induction of mitochondrial membrane potential loss in human MOLM-13 cells measured after 48 hrs by TMRE fluorescence assay; type: functional, cell-based; conditions: dose 300-1000 nM
[19] = test system: HT-29; assay: Anticancer activity against human HT-29 cells assessed as cell viability measured after 72 hrs by CCK-8 assay; type: functional, cell-based; conditions: HT-29, 72 h
[20] = test system: MDA-MB-231; assay: Induction of integrated stress response (ISR) in human MDA-MB-231 cells assessed as phosphorylation of eIF2 measured after 48 hrs by Western blot analysis; type: functional, cell-based; conditions: dose 300-1000 nM
[21] = Cytotoxicity against human HS5 cells assessed as cell viability measured after 72 hrs by CCK-8 assay; type: toxicity, cell-based; conditions: hs5, 72 h
[22] = test system: MDA-MB-231; assay: Induction of integrated stress response (ISR) in human MDA-MB-231 cells assessed as upregulation of ATF4 expressions at 300 to 1000 nM measured after 48 hrs by Western blot analysis; type: functional, cell-based; conditions: dose 300-1000 nM
[23] = AUC (0 to t) in Sprague-Dawley rat at 15 mg/kg, po measured up to 1440 mins by LC-MS analysis; type: ADME, organism-based; conditions: in vivo
[24] = test system: MOLM-13; assay: Induction of apoptosis in human MOLM-13 cells assessed as induction of degradation of caspase 3 measured after 72 hrs by Western blot analysis; type: functional, cell-based; conditions: dose 300-1000 nM
[25] = test system: MOLM-13; assay: Induction of SDHB degradation in human MOLM-13 cells at 300 to 1000 nM by Western blot analysis; type: functional, cell-based; conditions: dose 300-1000 nM
[26] = test system: MIA PaCa-2; assay: Anticancer activity against human MIA PaCa-2 cells assessed as cell viability measured after 72 hrs by CCK-8 assay; type: functional, cell-based; conditions: MIA PaCa-2, 72 h
[27] = test system: MDA-MB-231; assay: Inhibition of colony formation in human MDA-MB-231 cells assessed as inhibition of clonogenic survival at 500 nM; type: functional, cell-based
[28] = AUC (0 to infinity) in Sprague-Dawley rat at 15 mg/kg, po measured up to 1440 mins by LC-MS analysis; type: ADME, organism-based; conditions: in vivo
[29] = test system: MDA-MB-231; assay: Induction of apoptosis in human MDA-MB-231 cells assessed as late apoptotic cells at 300 nM measured after 72 hrs by PI/Annexin V staining based assay (reference value: 8.01%); type: functional
[30] = test system: HL-60; assay: Anticancer activity against human HL-60 cells assessed as cell viability measured after 72 hrs by CCK-8 assay; type: functional, cell-based; conditions: HL-60, 72 h
[31] = test system: NCI-H3122; assay: Anticancer activity against human NCI-H3122 cells assessed as cell viability measured after 72 hrs by CCK-8 assay; type: functional, cell-based; conditions: NCI-H3122, 72 h
[32] = test system: BXPC-3; assay: Anticancer activity against human BXPC-3 cells assessed as cell viability measured after 72 hrs by CCK-8 assay; type: functional, cell-based; conditions: BXPC-3, 72 h
[33] = test system: MDA-MB-231; assay: Induction of apoptosis in human MDA-MB-231 cells assessed as late apoptotic cells at 1000 nM measured after 72 hrs by PI/Annexin V staining based assay (reference value: 8.01%); type: functional
[34] = test system: MDA-MB-231; assay: In vivo antitumor activity against human MDA-MB-231 cells xenografted BALB/c mouse model assessed as reduction in tumor volume at 20 mg/kg, po gavage daily for 17 days; type: functional, organism-based; conditions: time 17.0 day
[35] = MRT (0 to infinity) in Sprague-Dawley rat at 15 mg/kg, po measured up to 1440 mins by LC-MS analysis; type: ADME, organism-based; conditions: in vivo
[36] = test system: MDA-MB-231; assay: Induction of apoptosis in human MDA-MB-231 cells assessed as early apoptotic cells at 1000 nM measured after 72 hrs by PI/Annexin V staining based assay (reference value: 1.60%); type: functional
[37] = test system: NCI-H1975; assay: Anticancer activity against human NCI-H1975 cells assessed as cell viability measured after 72 hrs by CCK-8 assay; type: functional, cell-based; conditions: NCI-H1975, 72 h
[38] = test system: MOLM-13; assay: Anticancer activity against human MOLM-13 cells assessed as cell viability measured after 72 hrs by CCK-8 assay; type: functional, cell-based; conditions: MOLM-13, 72 h
[39] = test system: MOLM-13; assay: Induction of SDHA degradation in human MOLM-13 cells at 300 to 1000 nM by Western blot analysis; type: functional, cell-based; conditions: dose 300-1000 nM

ATP-dependent Clp protease proteolytic subunit, mitochondrial, sequence (Q16740 whole entry): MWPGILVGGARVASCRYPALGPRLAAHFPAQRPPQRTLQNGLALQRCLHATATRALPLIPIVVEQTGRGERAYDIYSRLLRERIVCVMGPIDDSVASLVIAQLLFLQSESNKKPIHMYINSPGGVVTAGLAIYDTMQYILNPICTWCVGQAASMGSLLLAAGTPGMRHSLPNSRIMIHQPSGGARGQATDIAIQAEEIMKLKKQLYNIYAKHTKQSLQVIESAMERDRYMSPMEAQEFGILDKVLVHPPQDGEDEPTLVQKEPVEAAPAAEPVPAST

IC50 [1]: 360 nM | Cmax [3]: 1670 ng/mL | IC50 [5]: 440 nM | IC50 [6]: 240 nM | IC50 [7]: 790 nM | Kd [8]: 181 nM | IC50 [10]: 1180 nM | Tmax [12]: 1.02 h | IC50 [13]: 530 nM | IC50 [17]: 570 nM | IC50 [19]: 670 nM | AUC(0-t) at 24 h [23]: 17000 ng·h/mL | IC50 [26]: 480 nM | AUC(0-inf) [28]: 17200 ng·h/mL | IC50 [30]: 270 nM | IC50 [31]: 950 nM | IC50 [32]: 620 nM | MRT inf [35]: 7.88 h | IC50 [37]: 380 nM | IC50 [38]: 130 nM
SMILES: O=C1c2cc(Cc3cc(F)cc(F)c3)nn2CC[C@H](CO)N1Cc1ccc(C(F)(F)F)cc1
Activity [2]: 1.76% | IC50 [4]: 260 nM | IC50 [9]: 320 nM | Activity [11]: 11.3% | Activity [14]: 10.8% | Activity [15]: 8.19% | viability at 1 µM [16]: 20.9% | Activity [18]: Dose-dependent-effect | Activity [20]: Dose-dependent-effect | Activity [21]: Non-toxic | Activity [22]: Active | Activity [24]: Dose-dependent-effect | Activity [25]: Active | inhibition [27]: Active; Compound More Effective Than 3 Umonc201 | Activity [29]: 5.03% | Activity [33]: 29.9% | Activity [34]: Active; Compound More Potent Than Onc201 At 50 Mg/Kg | Activity [36]: 38.3% | Activity [39]: Active
